Measurements published in ChEMBL document CHEMBL1944510, “Potent galloyl-based selective modulators targeting multidrug resistance associated protein 1 and P-glycoprotein” (J Med Chem, 2012).

Tested on: not listed separately
Assay: Chemical stability of the compound at 1 to 100 uM after 1 hr by ESI-MS analysis
Format: physicochemical
Details: not given
For `COc1cc(C(=O)Nc2ccc(-c3ccccc3)cc2[N+](=O)[O-])cc(O)c1O`, the Stability was “Stable”. In the case of `COc1cc(C(=O)Nc2ccc(-c3ccccc3)cc2[N+](=O)[O-])cc(OC)c1OC`, the Stability is reported as “Stable”. With `O=C(Nc1ccc(-c2ccccc2)cc1[N+](=O)[O-])c1cc(O)c(O)c(O)c1` the Stability was “Stable”.

Target: ATP-dependent translocase ABCB1 (Homo sapiens, UniProt P08183)
Sequence (P08183 whole entry): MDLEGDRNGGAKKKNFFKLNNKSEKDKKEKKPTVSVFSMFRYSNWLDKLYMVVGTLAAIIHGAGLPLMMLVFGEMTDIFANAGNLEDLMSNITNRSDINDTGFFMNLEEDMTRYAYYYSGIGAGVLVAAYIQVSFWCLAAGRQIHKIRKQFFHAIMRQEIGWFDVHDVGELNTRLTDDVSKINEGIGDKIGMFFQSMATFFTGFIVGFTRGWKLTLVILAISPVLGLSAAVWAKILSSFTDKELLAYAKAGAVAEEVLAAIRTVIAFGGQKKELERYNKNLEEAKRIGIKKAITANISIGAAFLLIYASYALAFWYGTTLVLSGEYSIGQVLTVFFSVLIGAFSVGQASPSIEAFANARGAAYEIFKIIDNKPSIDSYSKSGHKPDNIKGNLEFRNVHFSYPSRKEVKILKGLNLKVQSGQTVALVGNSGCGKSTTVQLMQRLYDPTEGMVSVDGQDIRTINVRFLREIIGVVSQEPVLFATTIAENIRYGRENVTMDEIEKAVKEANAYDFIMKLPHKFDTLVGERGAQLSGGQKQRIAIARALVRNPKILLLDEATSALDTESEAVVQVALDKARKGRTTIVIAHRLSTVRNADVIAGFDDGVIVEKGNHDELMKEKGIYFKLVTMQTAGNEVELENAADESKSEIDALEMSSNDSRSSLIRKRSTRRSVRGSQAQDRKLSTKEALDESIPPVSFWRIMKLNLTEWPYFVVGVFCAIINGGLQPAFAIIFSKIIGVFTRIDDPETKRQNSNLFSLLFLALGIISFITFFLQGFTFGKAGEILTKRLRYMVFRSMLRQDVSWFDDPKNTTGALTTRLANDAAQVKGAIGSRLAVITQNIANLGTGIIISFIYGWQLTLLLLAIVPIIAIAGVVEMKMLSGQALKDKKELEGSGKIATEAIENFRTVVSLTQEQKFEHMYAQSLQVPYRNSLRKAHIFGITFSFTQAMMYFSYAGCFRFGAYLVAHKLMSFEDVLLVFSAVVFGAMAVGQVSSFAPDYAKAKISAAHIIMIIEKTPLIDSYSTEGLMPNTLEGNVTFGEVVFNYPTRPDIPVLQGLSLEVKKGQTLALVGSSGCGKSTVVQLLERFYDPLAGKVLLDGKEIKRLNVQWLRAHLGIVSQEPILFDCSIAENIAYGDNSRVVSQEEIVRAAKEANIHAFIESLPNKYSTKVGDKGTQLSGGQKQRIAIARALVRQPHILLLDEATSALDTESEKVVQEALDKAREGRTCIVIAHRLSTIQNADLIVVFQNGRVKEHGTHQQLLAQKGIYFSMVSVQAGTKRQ
Assay: Inhibition of human MDR1 expressed in MDCK cells assessed as calcein AM accumulation after 30 mins by fluorescence assay
Format: cell-based
Details: read-out: IC50
With `COc1cc(C(=O)Nc2ccc(-c3ccccc3)cc2)cc(O)c1O` the IC50 was > 100 µM. In the case of `COc1cc(C(=O)Nc2ccc(Br)cc2[N+](=O)[O-])cc(OC)c1OC`, the IC50 is reported as > 100 µM. With `COc1cc(C(=O)Nc2ccc(-c3cccs3)cc2[N+](=O)[O-])cc(OC)c1OC` the IC50 was 17.3 µM. Molecule `COc1cc(C(=O)Nc2ccc(-c3ccccc3)cc2[N+](=O)[O-])cc(O)c1O` has an IC50 of 67 µM. With `COc1cc(C(=O)Nc2ccc(-c3ccccc3)cc2)cc(OC)c1OC` the IC50 was > 100 µM. `COc1cc(C(=O)Nc2ccc(-c3cc(OC)c(OC)c(OC)c3)cc2[N+](=O)[O-])cc(OC)c1OC` showed an IC50 of 24.3 µM. In the case of `COc1cc(C(=O)Nc2ccc(Br)cc2)cc(OC)c1OC`, the IC50 is reported as 20 µM. With `COC1=CC(C(=O)Nc2ccc(-c3ccccc3)cc2[N+](=O)[O-])=CC(=O)C1=O` the IC50 was > 100 µM. `COc1cc(C(=O)Nc2ccc(-c3cccnc3)cc2[N+](=O)[O-])cc(OC)c1OC` gave an IC50 of 6.8 µM. For `COc1cc(NC(=O)c2ccc(-c3ccccc3)cc2[N+](=O)[O-])cc(O)c1O`, the IC50 was > 100 µM. With `COc1cc(C(=O)Nc2ccc(-c3ccccc3)cc2F)cc(O)c1O` the IC50 was 14.1 µM. In the case of `COc1ccc(CCN(C)CCCC(C#N)(c2ccc(O)c(O)c2)C(C)C)cc1OC` (racemic), the IC50 is reported as 31.7 µM. For `COc1cc(OC)cc(C(=O)Nc2ccc(-c3ccccc3)cc2[N+](=O)[O-])c1`, the IC50 was 6.6 µM. In the case of `COc1cc(C(=O)Nc2ccc(-c3cc(F)cc(F)c3)cc2[N+](=O)[O-])cc(O)c1O`, the IC50 is reported as 16.8 µM. For `COc1cc(C(=O)Nc2ccc(-c3ccccc3)cc2NC(C)=O)cc(OC)c1OC`, the IC50 was 1.9 µM. `COc1cc(C(=O)Nc2ccc(-c3cccc(C(C)=O)c3)cc2[N+](=O)[O-])cc(O)c1O` showed an IC50 of 9.1 µM. Molecule `COc1ccc(C(=O)Nc2ccc(-c3ccccc3)cc2[N+](=O)[O-])cc1O` has an IC50 of 3.5 µM. `COc1cc(C(=O)Nc2ccc(-c3ccc4c(c3)OCO4)cc2[N+](=O)[O-])cc(OC)c1OC` showed an IC50 of 0.2 µM. With `COc1cc(C(=O)Nc2ccc(-c3ccccc3)cc2NC(C)=O)cc(O)c1O` the IC50 was > 100 µM. In the case of `COc1cc(C(=O)Nc2ccc(-c3ccc(O)c(O)c3)cc2[N+](=O)[O-])cc(O)c1O`, the IC50 is reported as > 100 µM. In the case of `O=C(Nc1ccc(Br)cc1[N+](=O)[O-])c1cc(O)c(O)c(O)c1`, the IC50 is reported as > 100 µM. With `O=C(Nc1ccc(-c2ccccc2)cc1[N+](=O)[O-])c1cc(O)cc(O)c1` the IC50 was 72 µM. With `COc1cc(C(=O)Nc2ccc(-c3cc(O)c(O)c(OC)c3)cc2[N+](=O)[O-])cc(O)c1O` the IC50 was 3.1 µM. In the case of `COc1cc(C(=O)Nc2ccc(-c3ccccc3)cc2[N+](=O)[O-])cc(OC)c1OC`, the IC50 is reported as > 100 µM. `COc1cc(C(=O)Nc2ccc(-c3ccccc3)cc2F)cc(OC)c1OC` showed an IC50 of 1.4 µM. With `COc1cc(CNc2ccc(-c3ccccc3)cc2[N+](=O)[O-])cc(OC)c1OC` the IC50 was 1.5 µM. For `O=C(Nc1ccc(-c2ccccc2)cc1[N+](=O)[O-])c1cc(O)c(O)c(O)c1`, the IC50 was > 100 µM. With `COc1cc(C(=O)Nc2ccc(-c3cccc([N+](=O)[O-])c3)cc2)cc(O)c1O` the IC50 was 32.5 µM. With `COc1ccc(NC(=O)c2cc(OC)c(OC)c(OC)c2)c([N+](=O)[O-])c1` the IC50 was > 100 µM. In the case of `COc1cc(NC(=O)c2ccc(-c3ccccc3)cc2[N+](=O)[O-])cc(OC)c1OC`, the IC50 is reported as 2 µM. Molecule `COc1ccc(NC(=O)c2cc(O)c(O)c(OC)c2)c([N+](=O)[O-])c1` has an IC50 of 65 µM. With `COc1cc(C(=O)Nc2ccc(-c3cccc(C(C)=O)c3)cc2[N+](=O)[O-])cc(OC)c1OC` the IC50 was 0.6 µM. For `COc1cc(C(=O)Nc2ccc(-c3ccccc3)cc2N)cc(OC)c1OC`, the IC50 was 7.2 µM. `COc1cc(C(=O)Nc2cc(-c3ccccc3)ccc2[N+](=O)[O-])cc(O)c1O` showed an IC50 of 40.2 µM. Molecule `COc1ccc(C(=O)Nc2ccc(-c3ccccc3)cc2[N+](=O)[O-])cc1OC` has an IC50 of 1.3 µM. `COc1cc(C(=O)Nc2ccc(Br)cc2[N+](=O)[O-])cc(O)c1O` showed an IC50 of 38.4 µM. For `COc1cc(C(=O)Nc2ccc(-c3ccccc3)cc2N)cc(O)c1O`, the IC50 was > 100 µM. Work on `COc1cc(CNc2ccc(-c3ccccc3)cc2[N+](=O)[O-])cc(O)c1O` yielded an IC50 of 72 µM. Work on `COc1cc(C(=O)Nc2ccc(-c3ccc[n+](C)c3)cc2[N+](=O)[O-])cc(OC)c1OC` yielded an IC50 of 34 µM. Molecule `COc1cc(C(=O)Nc2cc(-c3ccccc3)ccc2[N+](=O)[O-])cc(OC)c1OC` has an IC50 of 0.57 µM. With `COc1cc(C(=O)Nc2ccc(-c3cccc([N+](=O)[O-])c3)cc2[N+](=O)[O-])cc(OC)c1OC` the IC50 was 0.4 µM.

Same assay, conditions: read-out: pIC50 (converted)
Molecule `COc1cc(C(=O)Nc2ccc(-c3cc(OC)c(OC)c(OC)c3)cc2[N+](=O)[O-])cc(OC)c1OC` has an IC50 of 24.3 µM. In the case of `COc1cc(C(=O)Nc2ccc(-c3ccc4c(c3)OCO4)cc2[N+](=O)[O-])cc(OC)c1OC`, the IC50 is reported as 0.2 µM. `COc1cc(C(=O)Nc2ccc(-c3cccc(C(C)=O)c3)cc2[N+](=O)[O-])cc(OC)c1OC` showed an IC50 of 0.6 µM. In the case of `COc1cc(C(=O)Nc2cc(-c3ccccc3)ccc2[N+](=O)[O-])cc(OC)c1OC`, the IC50 is reported as 0.57 µM. With `COc1cc(C(=O)Nc2ccc(-c3cccc([N+](=O)[O-])c3)cc2[N+](=O)[O-])cc(OC)c1OC` the IC50 was > 1 µM.
